Source: US6673827B1, “Methods of treating fungal infections with inhibitors of NAD synthetase enzyme” (priority 1999, dated 2004)
Values after ≈ are worked out from the molar mass of the structure shown. Where two headings read alike, the source gives them in different places.

Key:
[1] = tested on: Candida tropicalis ATCC 750; experiment: In vitro study of inhibition of growth and lethality against yeast (MIC/MLC susceptibility test), isolate A; type: cell-based; conditions: Candida tropicalis, 2nd pair of lines, isolate assigned by line order; for MFC: ATCC750, read-out: Minimum Lethal Conc. (MLC)
[2] = tested on: Candida albicans LH-000664533; experiment: In vitro study of inhibition of growth and lethality against yeast (MIC/MLC susceptibility test), isolate D; type: cell-based; conditions: Candida albicans, Candida albicans, 2nd pair of lines, isolate assigned by line order; for MFC: LH000664533, read-out: Minimum Lethal Conc. (MLC)
[3] = tested on: Torulopsis glabrata JHC-BC9951635; experiment: In vitro study of inhibition of growth and lethality against yeast (MIC/MLC susceptibility test), isolate E; type: cell-based; conditions: Torulopsis glabrata, 2nd pair of lines, isolate assigned by line order; for MIC / MFC: Nakaseomyces glabratus; for MFC: JHCBC9951635, read-out: Minimum Lethal Conc. (MLC)
[4] = biological target: T1, NAD synthetase (recombinant protein from B. subtilis; purified) (Bacillus subtilis, UniProt P08164); experiment: NAD synthetase enzyme inhibition assay (coupled enzymatic assay, HTS); type: biochemical; conditions: IC50 (μg/mL) for Inhibit. of NAD Synthetase, table of structures used in the yeast assay (Example 4)
T1 construct: made in house
Experimental: NAD Synthetase Enzyme Inhibition Assay-Determination of Test Compound Concentrations Providing 50% Inhibition ([…]) of the Maximum Enzyme Rate
The potential inhibitory activity of the synthetic compounds was determined by the use of a coupled enzymatic assay. The coupled assay involves two steps as summarized below. [drawing 98]
The measurement of inhibitory activities of the test compounds was facilitated by the use of a high through-put screening system (HTS system). The HTS system utilizes an integrated Sagian 2M ORCA robotic system coordinating the functions of a Beckman Biomek 2000 liquid handler and a Molecular Devices SpectraMax Plus spectrophotometer. The 2M ORCA robotic station is responsible for the movement of all hardware and the integration of multiple stations on the worksurface. The Biomek 2000 is programmed to perform all phases of liquid dispensing and mixing. The SpectraMax Plus spectrophotometer is equipped to monitor absorbance in a 96-well plate format.
The Biomek 2000 mixes these components utilizing a predefined mixing program. […] The reaction is monitored by measuring the increase in absorbance at 340 nm (NADH). The linear portion of the reaction is monitored for 180 sec. The initial velocity is determined using Softmax Pro, the software supplied with the Molecular Devices SpectrMax Plus spectrophotometer.
The test compounds were supplied as a stock solution with a concentration of 50 mM dissolved in 100% dimethyl sulfoxide (DMSO). An initial screen was conducted on all compounds using a 2 or 3 concentration screen. The 2 panel screen used concentrations of 0.2 mM and 0.1 mM for the compounds. The 3 panel screen used concentrations of 0.2 mM, 0.1 mM, and 0.05 mM. […] The IC50 values for each compound were determined graphically from a plot of % inhibition versus […].

[5] = tested on: Cryptococcus neoformans DLB-1027594CNC; experiment: In vitro study of inhibition of growth and lethality against yeast (MIC/MLC susceptibility test), isolate G; type: cell-based; conditions: Cryptococcus neoformans, 1st pair of lines, isolate assigned by line order; for MIC / MFC: DLB1027594CNC; for MFC: read-out: Minimum Lethal Conc. (MLC)
[6] = tested on: Candida albicans KJP-000531594; experiment: In vitro study of inhibition of growth and lethality against yeast (MIC/MLC susceptibility test), isolate C; type: cell-based; conditions: Candida albicans, Candida albicans, 1st pair of lines; for MFC: KJP000531594, read-out: Minimum Lethal Conc. (MLC)
[7] = tested on: Candida tropicalis ATCC 28707; experiment: In vitro study of inhibition of growth and lethality against yeast (MIC/MLC susceptibility test), isolate B; type: cell-based; conditions: Candida tropicalis, 1st pair of lines, isolate assigned by line order; for MFC: ATCC28707, read-out: Minimum Lethal Conc. (MLC)
[8] = tested on: Cryptococcus neoformans SLP-BC0012854; experiment: In vitro study of inhibition of growth and lethality against yeast (MIC/MLC susceptibility test), isolate H; type: cell-based; conditions: Cryptococcus neoformans, 2nd pair of lines, isolate assigned by line order; for MFC: SLPBC0012854, read-out: Minimum Lethal Conc. (MLC)
[9] = tested on: Torulopsis glabrata ERH-BC9938274; experiment: In vitro study of inhibition of growth and lethality against yeast (MIC/MLC susceptibility test), isolate F; type: cell-based; conditions: Torulopsis glabrata, 1st pair of lines, isolate assigned by line order; for MIC / MFC: Nakaseomyces glabratus; for MFC: ERHBC9938274, read-out: Minimum Lethal Conc. (MLC)
[10] = ATCC750, 24 h, read at 24 hr, read-out: Minimum Inhibitory Conc. (MIC), 24 hr.
[11] = ATCC750, 48 h, read at 48 hr, read-out: Minimum Inhibitory Conc. (MIC), 48 hr.
[12] = LH000664533, 24 h, read at 24 hr, read-out: Minimum Inhibitory Conc. (MIC), 24 hr.
[13] = LH000664533, 48 h, read at 48 hr, read-out: Minimum Inhibitory Conc. (MIC), 48 hr.
[14] = JHCBC9951635, 24 h, read at 24 hr, read-out: Minimum Inhibitory Conc. (MIC), 24 hr.
[15] = JHCBC9951635, 48 h, read at 48 hr, read-out: Minimum Inhibitory Conc. (MIC), 48 hr.
[16] = 72 h, read at 72 hr, read-out: Minimum Inhibitory Conc. (MIC), 72 hr.
[17] = KJP000531594, 24 h, read at 24 hr, isolate not given, assigned by line order and MLC of Table 4B, read-out: Minimum Inhibitory Conc. (MIC), 24 hr.
[18] = KJP000531594, 48 h, read at 48 hr, isolate assigned by line order, read-out: Minimum Inhibitory Conc. (MIC), 48 hr.
[19] = ATCC28707, 24 h, read at 24 hr, read-out: Minimum Inhibitory Conc. (MIC), 24 hr.
[20] = ATCC28707, 48 h, read at 48 hr, read-out: Minimum Inhibitory Conc. (MIC), 48 hr.
[21] = SLPBC0012854, 48 h, read at 48 hr, read-out: Minimum Inhibitory Conc. (MIC), 48 hr.
[22] = SLPBC0012854, 72 h, read at 72 hr, read-out: Minimum Inhibitory Conc. (MIC), 72 hr.
[23] = ERHBC9938274, 24 h, read at 24 hr, read-out: Minimum Inhibitory Conc. (MIC), 24 hr.
[24] = ERHBC9938274, 48 h, read at 48 hr, read-out: Minimum Inhibitory Conc. (MIC), 48 hr.
[25] = 48 h, read at 48 hr, read-out: Minimum Inhibitory Conc. (MIC), 48 hr.

T1 sequence (P08164 whole entry): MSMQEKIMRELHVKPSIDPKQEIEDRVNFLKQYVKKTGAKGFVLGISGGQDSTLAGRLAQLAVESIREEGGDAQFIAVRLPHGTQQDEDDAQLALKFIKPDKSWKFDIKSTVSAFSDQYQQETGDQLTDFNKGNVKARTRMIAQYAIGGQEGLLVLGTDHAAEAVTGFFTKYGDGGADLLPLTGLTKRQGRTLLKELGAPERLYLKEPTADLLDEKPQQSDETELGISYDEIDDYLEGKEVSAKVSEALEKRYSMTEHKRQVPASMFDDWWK

| SMILES | MFC [1] [µg/mL] | MIC [1, 10] [µg/mL] | MIC [1, 11] [µg/mL] | MIC [2, 12] [µg/mL] | MIC [2, 13] [µg/mL] | MFC [2] [µg/mL] | MIC [3, 14] [µg/mL] | MIC [3, 15] [µg/mL] | MFC [3] [µg/mL] | IC50 [4] [µM] | MIC [5, 16] [µg/mL] | MFC [5] [µg/mL] | MIC [6, 17] [µg/mL] | MIC [6, 18] [µg/mL] | MFC ([6]; isolate assigned by line order) [µg/mL] | MFC [7] [µg/mL] | MIC [7, 19] [µg/mL] | MIC [7, 20] [µg/mL] | MIC [8, 21] [µg/mL] | MIC [8, 22] [µg/mL] | further results |
| --- | --- | --- | --- | --- | --- | --- | --- | --- | --- | --- | --- | --- | --- | --- | --- | --- | --- | --- | --- | --- | --- |
| COC(=O)c1cc2cc(OCc3ccccc3)ccc2n1CCCCCCCOC(=O)c1ccc(CN(C)C)cc1 [Compound 1096] | > 32 | > 32 | > 32 | > 32 | > 32 | > 32 | > 32 | > 32 | > 32 | 180 | > 32 | > 32 | > 32 | > 32 | > 32 | 16 (≈ 28.7 µM) | 4 (≈ 7.19 µM) | 8 (≈ 14.4 µM) | > 32 | > 32 | Minimum Inhibitory Conc. (MIC), 72 hr. ([5]; read at 72 hr): 16 µg/mL; Minimum Inhibitory Conc. (MIC), 24 hr. ([7]; read at 24 hr): 2 µg/mL; Minimum Inhibitory Conc. (MIC), 48 hr. ([7]; read at 48 hr): 16 µg/mL; Minimum Inhibitory Conc. (MIC), 48 hr. ([8]; read at 48 hr): 32 µg/mL; Minimum Inhibitory Conc. (MIC), 72 hr. ([8]; read at 72 hr): 32 µg/mL; MFC [8]: > 32 µg/mL; MIC [9, 23]: > 32 µg/mL; MIC [9, 24]: > 32 µg/mL; MFC [9]: > 32 µg/mL |
| C[N+](C)(C)C(CCc1ccccc1)C(=O)OCCCCCCCCOc1ccc(OCc2ccccc2)cc1.[I-] (stereo not drawn) [Compound 1260] | 2 | 2 | 2 | 2 | 2 | 4 | 2 | 2 | 2 | 45.5 | 1 | 2 | 2 | 2 | 2 | 1 | 1 | 1 | 1 | 1 | MIC [5, 25]: 1 µg/mL; MFC [8]: 2 µg/mL; MIC [9, 23]: 2 µg/mL; MIC [9, 24]: 2 µg/mL; MFC [9]: 2 µg/mL |
| C[N+](C)(C)C(Cc1ccccc1)C(=O)OCCCCCCCCOc1ccc(OCc2ccccc2)cc1.[I-] (stereo not drawn) [Compound 1230] | 1 | 1 | 1 | 2 | 4 | 2 | 1 | 2 | 2 | 31 | 1 | 4 | 1 | 2 | 2 | 1 | 0.5 | 0.5 | 1 | 1 | Minimum Inhibitory Conc. (MIC), 24 hr. ([2]; read at 24 hr): 1 µg/mL; Minimum Inhibitory Conc. (MIC), 48 hr. ([2]; read at 48 hr): 2 µg/mL; Minimum Inhibitory Conc. (MIC), 24 hr. ([3]; read at 24 hr): 2 µg/mL; Minimum Inhibitory Conc. (MIC), 48 hr. ([5]; read at 48 hr): 0.5 µg/mL; Minimum Inhibitory Conc. (MIC), 72 hr. ([5]; read at 72 hr): 2 µg/mL; MIC [5, 25]: 1 µg/mL; Minimum Inhibitory Conc. (MIC), 72 hr. ([8]; read at 72 hr): 2 µg/mL; MFC [8]: 4 µg/mL; MIC [9, 23]: 2 µg/mL; MIC [9, 24]: 2 µg/mL; MFC [9]: 2 µg/mL |
| C[N+](C)(C)c1ccc(CCCC(=O)OCCCCCCCCOc2ccc(OCc3ccccc3)cc2)cc1.[I-] [Compound 1200] | 1 | 2 | 2 | 2 | 2 | 2 | 1 | 1 | 1 | 53.1 | 2 | 4 | 2 | 2 | 2 | 1 | 1 | 1 | 2 | 2 | Minimum Inhibitory Conc. (MIC), 24 hr. ([1]; read at 24 hr): 1 µg/mL; Minimum Inhibitory Conc. (MIC), 48 hr. ([1]; read at 48 hr): 1 µg/mL; MIC [5, 25]: 2 µg/mL; MFC [8]: 4 µg/mL; MIC [9, 23]: 1 µg/mL; MIC [9, 24]: 2 µg/mL; MFC [9]: 2 µg/mL |
| COC(=O)c1cc2ccccc2[n+](C)c1-c1c[nH]c2ccccc12.[I-] [Compound 1500] | > 32 | 32 | > 32 | 32 | > 32 | > 32 | 32 | > 32 | > 32 | > 450 | 32 | > 32 | 32 | > 32 | > 32 | 8 | 4 | 8 | 32 | 32 | Minimum Inhibitory Conc. (MIC), 24 hr. ([1]; read at 24 hr): >32 µg/mL; Minimum Inhibitory Conc. (MIC), 24 hr. ([2]; read at 24 hr): >32 µg/mL; Minimum Inhibitory Conc. (MIC), 24 hr. ([3]; read at 24 hr): >32 µg/mL; Minimum Inhibitory Conc. (MIC), 72 hr. ([5]; read at 72 hr): >32 µg/mL; MIC [5, 25]: 32 µg/mL; Minimum Inhibitory Conc. (MIC), 24 hr. ([6]; read at 24 hr, isolate not given, assigned by line order and MLC of Table 4B): >32 µg/mL; Minimum Inhibitory Conc. (MIC), 72 hr. ([8]; read at 72 hr): >32 µg/mL; MFC [8]: > 32 µg/mL; MIC [9, 23]: 32 µg/mL; MIC [9, 24]: > 32 µg/mL; MFC [9]: > 32 µg/mL; Minimum Inhibitory Conc. (MIC), 24 hr. ([9]; read at 24 hr): >32 µg/mL |
